In the NIST ThermoML archive (doi:10.1016/j.jct.2009.10.009):
Several values for one entry are separate records, joined by “and”; a condition that tells them apart may be missing. Equal entries are not always repeated. Numbers after ± are expanded uncertainties.

Details: Crystal, Calculated from knudsen effusion weight loss

CC(C)(C)c1cc(C=O)c(O)c(C(C)(C)C)c1 [3,5-di-tert-butyl-2-hydroxybenzaldehyde]
vapor or sublimation pressure (296.28 K): 0.000151 ± 8e-06 kPa and 0.000143 ± 7e-06 kPa and 0.00014 ± 7e-06 kPa
vapor or sublimation pressure (298.16 K): 0.000193 ± 1e-05 kPa and 0.00018 ± 9e-06 kPa and 0.000176 ± 9e-06 kPa
vapor or sublimation pressure (300.17 K): 0.000248 ± 1.2e-05 kPa and 0.000237 ± 1.2e-05 kPa and 0.000234 ± 1.2e-05 kPa
vapor or sublimation pressure (302.18 K): 0.000304 ± 1.5e-05 kPa and 0.0003 ± 1.5e-05 kPa and 0.000322 ± 1.6e-05 kPa
vapor or sublimation pressure (304.15 K): 0.000408 ± 2e-05 kPa and 0.000382 ± 1.9e-05 kPa and 0.000378 ± 1.9e-05 kPa
vapor or sublimation pressure (306.37 K): 0.000542 ± 2.7e-05 kPa and 0.000514 ± 2.6e-05 kPa and 0.000505 ± 2.5e-05 kPa
vapor or sublimation pressure (308.18 K): 0.000673 ± 3.4e-05 kPa and 0.000631 ± 3.2e-05 kPa and 0.00062 ± 3.1e-05 kPa
vapor or sublimation pressure (310.17 K): 0.000861 ± 4.3e-05 kPa and 0.000812 ± 4.1e-05 kPa and 0.000801 ± 4e-05 kPa
vapor or sublimation pressure (312.2 K): 0.001099 ± 0.00011 kPa and 0.001032 ± 0.0001 kPa and 0.001014 ± 0.0001 kPa

O=Cc1cccc(O)c1 [3-hydroxybenzaldehyde]
vapor or sublimation pressure (312.17 K): 0.000139 ± 7e-06 kPa and 0.000134 ± 7e-06 kPa and 0.000131 ± 7e-06 kPa
vapor or sublimation pressure (314.2 K): 0.000177 ± 9e-06 kPa and 0.000171 ± 9e-06 kPa and 0.000168 ± 8e-06 kPa
vapor or sublimation pressure (316.2 K): 0.000233 ± 1.2e-05 kPa and 0.00022 ± 1.1e-05 kPa and 0.000216 ± 1.1e-05 kPa
vapor or sublimation pressure (318.19 K): 0.00028 ± 1.4e-05 kPa and 0.000275 ± 1.4e-05 kPa and 0.000288 ± 1.4e-05 kPa
vapor or sublimation pressure (320.18 K): 0.000377 ± 1.9e-05 kPa and 0.000358 ± 1.8e-05 kPa and 0.000353 ± 1.8e-05 kPa
vapor or sublimation pressure (322.2 K): 0.000462 ± 2.3e-05 kPa and 0.000453 ± 2.3e-05 kPa and 0.00044 ± 2.2e-05 kPa
vapor or sublimation pressure (324.17 K): 0.000581 ± 2.9e-05 kPa and 0.000557 ± 2.8e-05 kPa and 0.000542 ± 2.7e-05 kPa
vapor or sublimation pressure (326.22 K): 0.000738 ± 3.7e-05 kPa and 0.000712 ± 3.6e-05 kPa and 0.000694 ± 3.5e-05 kPa
vapor or sublimation pressure (328.18 K): 0.000907 ± 4.5e-05 kPa and 0.000871 ± 4.4e-05 kPa and 0.000849 ± 4.3e-05 kPa
vapor or sublimation pressure (330.19 K): 0.001139 ± 0.00012 kPa and 0.00109 ± 0.00011 kPa and 0.001058 ± 0.00011 kPa

O=Cc1ccc(O)cc1 [4-hydroxybenzaldehyde]
vapor or sublimation pressure (324.2 K): 0.000157 ± 8e-06 kPa and 0.000151 ± 8e-06 kPa and 0.000149 ± 7e-06 kPa
vapor or sublimation pressure (326.16 K): 0.000197 ± 1e-05 kPa and 0.000193 ± 1e-05 kPa and 0.000187 ± 9e-06 kPa
vapor or sublimation pressure (328.31 K): 0.000252 ± 1.3e-05 kPa and 0.000244 ± 1.2e-05 kPa and 0.000242 ± 1.2e-05 kPa
vapor or sublimation pressure (330.18 K): 0.000303 ± 1.5e-05 kPa and 0.000296 ± 1.5e-05 kPa and 0.000308 ± 1.5e-05 kPa
vapor or sublimation pressure (332.16 K): 0.000382 ± 1.9e-05 kPa and 0.000375 ± 1.9e-05 kPa and 0.00037 ± 1.9e-05 kPa
vapor or sublimation pressure (334.18 K): 0.000477 ± 2.4e-05 kPa and 0.000472 ± 2.4e-05 kPa and 0.000463 ± 2.3e-05 kPa
vapor or sublimation pressure (336.22 K): 0.000603 ± 3e-05 kPa and 0.000602 ± 3e-05 kPa and 0.000583 ± 2.9e-05 kPa
vapor or sublimation pressure (338.34 K): 0.000756 ± 3.8e-05 kPa and 0.000738 ± 3.7e-05 kPa and 0.000728 ± 3.6e-05 kPa
vapor or sublimation pressure (340.17 K): 0.000926 ± 4.6e-05 kPa and 0.000905 ± 4.5e-05 kPa and 0.000886 ± 4.4e-05 kPa
vapor or sublimation pressure (341.3 K): 0.001019 ± 0.0001 kPa and 0.001005 ± 0.0001 kPa and 0.000984 ± 4.9e-05 kPa
